IC50 data for 24 compounds are collected here from patent publication US20130344026A1, “Dimeric Smac Mimetics” (priority 2009, published 2013).

Like-named read-outs stand apart in the source and are kept apart here. Some results are limits rather than exact numbers.

This assay has as its system PANC-1 cells. As to the kind of experiment: cell viability assay in PANC-1 cells (compound alone, + 100 ng/ml TNFa, + 300 ng/ml TRAIL). The assay is classed as cell-based.
Where [1] appears, read: Homo sapiens, PANC-1, compound alone, Tables 6-10, read-out: IC50 (μM) in cell viability assay in PANC-1 cells: Compound alone.
Where [2] appears, read: with 100 ng/ml TNFa, Tables 6-10, read-out: IC50 (μM) in cell viability assay in PANC-1 cells: Compound + 100 ng/ml TNFa.
Where [3] appears, read: with 300 ng/ml TRAIL, Tables 6-10, read-out: IC50 (μM) in cell viability assay in PANC-1 cells: Compound + 300 ng/ml TRAIL.
The mark [4] stands for this setting: Homo sapiens, PANC-1, compound alone, Tables 15-18, read-out: IC50 (uM) in cell viability assay in PANC-1 cells: Cmpnd alone.
Setting [5] is: with 100 ng/ml TNFa, Tables 15-18, read-out: IC50 (uM) in cell viability assay in PANC-1 cells: Cmpnd + 100 ng/ml TNFa.
Setting [6] is: with 300 ng/ml TRAIL, Tables 15-18, read-out: IC50 (uM) in cell viability assay in PANC-1 cells: Cmpnd + 300 ng/ml TRAIL.
[7] abbreviates: Homo sapiens, PANC-1 cells, compound alone, read-out: IC50 (uM) in cell viability assay in PANC-1 cells, Cmpnd alone.
Where [8] appears, read: PANC-1 cells, + 100 ng/ml TNFa, read-out: IC50 (uM) in cell viability assay in PANC-1 cells, Cmpnd + 100 ng/ml TNFa.
[9] abbreviates: PANC-1 cells, + 300 ng/ml TRAIL, read-out: IC50 (uM) in cell viability assay in PANC-1 cells, Cmpnd + 300 ng/ml TRAIL.

Consider `CN[C@@H](C)C(=O)N[C@H](C(=O)N1C[C@@H](NC(=O)c2cccc(C(=O)N[C@H]3C[C@@H](C(=O)NC4CCCc5cc(Br)ccc54)N(C(=O)[C@@H](NC(=O)[C@H](C)NC)C(C)(C)C)C3)c2)C[C@H]1C(=O)NC1CCCc2cc(Br)ccc21)C(C)(C)C` (single isomer, unassigned) [Compound 75], for which the IC50 runs as follows: under setting [1], over 1 µM; under setting [2], 0.018 µM; under setting [3], 0.013 µM.
For `CN[C@@H](C)C(=O)N[C@@H](CCNCc1ccc(CNCC[C@H](NC(=O)[C@H](C)NC)C(=O)N2CCC[C@H]2C(=O)N[C@@H]2CCCc3ccccc32)cc1)C(=O)N1CCC[C@H]1C(=O)N[C@@H]1CCCc2ccccc21` [Compound P2-43], the IC50 under setting [4] was over 1 µM, the IC50 under setting [5] is 0.012 µM and the IC50 under setting [6] was found to be 0.016 µM.
For the compound `CN[C@@H](C)C(=O)N[C@@H](CCC(=O)Nc1ccc(C#Cc2ccc(NC(=O)CC[C@H](NC(=O)[C@H](C)NC)C(=O)N3CCC[C@H]3C(=O)N[C@@H]3CCCc4ccccc43)cc2)cc1)C(=O)N1CCC[C@H]1C(=O)N[C@@H]1CCCc2ccccc21` [Compound P3-98], the IC50 under setting [7] is over 1 µM, the IC50 under setting [8] was found to be 0.01 µM and the IC50 under setting [9] came out at 0.012 µM.
`CN[C@@H](C)C(=O)N[C@@H]1CCN(C(=O)c2ccc(C(=O)N[C@H]3C[C@@H](C(=O)N[C@@H]4CCCc5ccccc54)N(C(=O)[C@@H](NC(=O)[C@H](C)NC)C(C)(C)C)C3)cc2)C1` [Compound 186]: the IC50 reads like this: under setting [1], over 1 µM; under setting [2], 0.56 µM; under setting [3], 0.55 µM.
As to `CN[C@@H](C)C(=O)N[C@H](C(=O)N1CCC[C@H]1C(=O)N[C@H](COC(=O)c1cccc(C(=O)OC[C@@H](NC(=O)[C@@H]2CCCN2C(=O)[C@@H](NC(=O)[C@H](C)NC)C(C)(C)C)c2ccccc2)c1)c1ccccc1)C(C)(C)C` [Compound P4-23], the IC50 was over 1 µM under setting [4], 0.014 µM under setting [5] and 0.006 µM under setting [6].
For the compound `CN[C@@H](C)C(=O)N[C@H](C(=O)N1C[C@@H](NC(=O)c2cccc(C(=O)N[C@H]3C[C@@H](C(=O)NC4CCCc5cc(F)ccc54)N(C(=O)[C@@H](NC(=O)[C@H](C)NC)C(C)(C)C)C3)c2)C[C@H]1C(=O)NC1CCCc2cc(F)ccc21)C(C)(C)C` (single isomer, unassigned) [Compound 72], the IC50 under setting [1] is over 1 µM, the IC50 under setting [2] turned out to be 0.0018 µM and the IC50 under setting [3] stood at 0.0033 µM.
For `CN[C@@H](C)C(=O)N[C@@H](CCCCCC[C@H](NC(=O)[C@H](C)NC)C(=O)N1CCC[C@H]1CNC(=O)Cc1ccccc1)C(=O)N1CCC[C@H]1CNC(=O)Cc1ccccc1` [Compound 77], in that order: over 1 µM, over 1 µM and over 1 µM.
For `CN[C@@H](C)C(=O)N[C@H](C(=O)N1C[C@@H](NC(=O)c2cccc(C(=O)N[C@H]3C[C@@H](C(=O)NCCc4ccc(O)c(O)c4)N(C(=O)[C@@H](NC(=O)[C@H](C)NC)C(C)(C)C)C3)c2)C[C@H]1C(=O)NCCc1ccc(O)c(O)c1)C(C)(C)C` [Compound 9], in that order: over 1 µM, over 1 µM and over 1 µM.
For `CN[C@@H](C)C(=O)N[C@H](C(=O)N1CCC[C@H]1C(=O)N[C@H](C)c1ccccc1)[C@H](C)NC(=O)CCCCC(=O)N[C@@H](C)[C@H](NC(=O)[C@H](C)NC)C(=O)N1CCC[C@H]1C(=O)N[C@H](C)c1ccccc1` [Compound 113], in that order: over 1 µM, 0.208 µM and 0.203 µM.
As for `CN[C@@H](C)C(=O)N[C@@H](CCCCNC(=O)C[C@H](NC(=O)[C@H](C)NC)C(=O)N1CCC[C@H]1C(=O)N[C@@H]1CCCc2ccccc21)C(=O)N1CCC[C@H]1C(=O)N[C@@H]1CCCc2ccccc21` [Compound 199], the IC50 by setting is: under setting [1], over 1 µM; under setting [2], 0.046 µM; under setting [3], 0.074 µM.
In the case of `C#CC[C@H](NC(=O)[C@H](C)NC)C(=O)N1C[C@@H](NC(=O)c2cccc(C(=O)N[C@H]3C[C@@H](C(=O)N[C@@H]4CCCc5ccccc54)N(C(=O)[C@@H](NC(=O)[C@H](C)NC)C(C)(C)C)C3)c2)C[C@H]1C(=O)N[C@@H]1CCCc2ccccc21` [Compound H-5], the IC50 under setting [4] was over 1 µM, the IC50 under setting [5] came to 0.008 µM and the IC50 under setting [6] was 0.009 µM.
With `CN[C@@H](C)C(=O)N[C@@H](CCCCCC[C@H](NC(=O)[C@H](C)NC)C(=O)N1CCC[C@H]1CNC(=O)c1c(OC)cccc1OC)C(=O)N1CCC[C@H]1CNC(=O)c1c(OC)cccc1OC` [Compound 35], the IC50 reads like this: under setting [1], over 1 µM; under setting [2], over 1 µM; under setting [3], over 1 µM.
In the case of `CN[C@@H](C)C(=O)N[C@@H](CC(=O)NCCNC(=O)C[C@H](NC(=O)[C@H](C)NC)C(=O)N1CCC[C@H]1C(=O)N[C@@H]1CCCc2ccccc21)C(=O)N1CCC[C@H]1C(=O)N[C@@H]1CCCc2ccccc21` [Compound P2-40], the IC50 under setting [4] was over 1 µM, the IC50 under setting [5] came to 0.19 µM and the IC50 under setting [6] came out at 0.25 µM.
For `CN[C@@H](C)C(=O)N[C@H](C(=O)N[C@@H](CCNC(=O)c1ccc(C#Cc2ccc(C(=O)N[C@H]3C[C@@H](C(=O)N[C@@H]4CCCc5ccccc54)N(C(=O)[C@@H](NC(=O)[C@H](C)NC)C(C)(C)C)C3)cc2)cc1)C(=O)NC(C)C(C)C)C(C)C` (some centres unmarked) [Compound 194], the IC50 is, setting by setting: under setting [1], over 1 µM; under setting [2], 0.057 µM; under setting [3], 0.06 µM.
For `CN[C@@H](C)C(=O)N[C@@H](CCCCCC[C@H](NC(=O)[C@H](C)NC)C(=O)N[C@H]1c2ccccc2C[C@@H]1NC(=O)c1c(OC)cccc1OC)C(=O)N[C@H]1c2ccccc2C[C@@H]1NC(=O)c1c(OC)cccc1OC` [Compound 59], in that order: over 1 µM, over 1 µM and over 1 µM.
On to `CN[C@@H](C)C(=O)N[C@H](C(=O)N1C[C@@H](NC(=O)c2cc(C(=O)N[C@H]3C[C@@H](C(=O)N[C@H](C)c4ccccc4)N(C(=O)[C@@H](NC(=O)[C@H](C)NC)C(C)(C)C)C3)n(C)n2)C[C@H]1C(=O)N[C@H](C)c1ccccc1)C(C)(C)C` [Compound P3-107], for which the IC50 runs as follows: under setting [7], over 1 µM; under setting [8], 0.015 µM; under setting [9], 0.02 µM.
Taken in the same sequence, the figures for `CN[C@@H](C)C(=O)N[C@H](C(=O)N1C[C@@H](NC(=O)c2[nH]c(C(=O)N[C@H]3C[C@@H](C(=O)N[C@H](C)c4ccccc4)N(C(=O)[C@@H](NC(=O)[C@H](C)NC)C(C)(C)C)C3)c3c2OCCO3)C[C@H]1C(=O)N[C@H](C)c1ccccc1)C(C)(C)C` [Compound P3-95] were over 1 µM, 0.006 µM and 0.006 µM.
As for `CN[C@@H](C)C(=O)N[C@H](C(=O)N1C[C@@H](OC(=O)c2cccc(C(=O)O[C@H]3C[C@@H](C(=O)N[C@H]4CCCc5ccccc54)N(C(=O)[C@@H](NC(=O)[C@H](C)NC)C(C)(C)C)C3)c2)C[C@H]1C(=O)N[C@H]1CCCc2ccccc21)C(C)(C)C` [Compound 206], under setting [1], the IC50 was over 1 µM.
As to `CN[C@@H](C)C(=O)N[C@@H](CCCCCC[C@H](NC(=O)[C@H](C)NC)C(=O)N1CCC[C@H]1c1ncc(C(=O)NC(c2ccccc2)c2ccccc2)o1)C(=O)N1CCC[C@H]1c1ncc(C(=O)NC(c2ccccc2)c2ccccc2)o1` [Compound 23], the IC50 under setting [1] is over 1 µM, the IC50 under setting [2] is over 1 µM and the IC50 under setting [3] is over 1 µM.
`CN[C@@H](C)C(=O)N[C@H](C(=O)N1C[C@@H](NC(=O)c2cc(C(=O)N[C@H]3C[C@@H](C(=O)N[C@H](C)Cc4ccccc4)N(C(=O)[C@@H](NC(=O)[C@H](C)NC)C(C)(C)C)C3)[nH]n2)C[C@H]1C(=O)N[C@H](C)Cc1ccccc1)C(C)(C)C` [Compound 11]: the IC50 under setting [1] is over 1 µM, the IC50 under setting [2] worked out at 0.834 µM and the IC50 under setting [3] was determined as 0.545 µM.
Taken in the same sequence, the figures for `CN[C@@H](C)C(=O)N[C@H](C(=O)N1CCC[C@H]1Cn1cnnc1CCc1ccccc1)[C@@H](C)OCC#CC#CCO[C@H](C)[C@H](NC(=O)[C@H](C)NC)C(=O)N1CCC[C@H]1Cn1cnnc1CCc1ccccc1` [Compound 85] were over 1 µM, over 1 µM and over 1 µM.
With `CC[C@H](NC)C(=O)N[C@H](C(=O)N[C@@H](CCNC(=O)c1ccc2cc(C(=O)N[C@H]3C[C@@H](C(=O)N[C@@H]4CCCc5ccccc54)N(C(=O)[C@@H](NC(=O)[C@H](C)NC)C(C)(C)C)C3)ccc2c1)C(=O)N[C@H](C)C(C)C)C1CCCCC1` [Compound H-11], the IC50 under setting [4] was over 1 µM.
Regarding `CN[C@@H](CO)C(=O)N[C@H](C(=O)N1C[C@@H](NC(=O)c2cc(C(=O)N[C@H]3C[C@@H](C(=O)N[C@H](C)c4ccccc4)N(C(=O)[C@@H](NC(=O)[C@H](CO)NC)C(C)(C)C)C3)[nH]n2)C[C@H]1C(=O)N[C@H](C)c1ccccc1)C(C)(C)C` [Compound P3-91], the IC50 under setting [7] is over 1 µM, the IC50 under setting [8] is 0.152 µM and the IC50 under setting [9] came out at 0.225 µM.
With `CN[C@@H](C)C(=O)N[C@H](C(=O)N1C[C@@H](NC(=O)c2cccc(C(=O)N[C@H]3C[C@@H](C(=O)N[C@H](C)C4OCCCO4)N(C(=O)[C@@H](NC(=O)[C@H](C)NC)C(C)(C)C)C3)c2)C[C@H]1C(=O)N[C@H](C)C1OCCCO1)C(C)(C)C` [Compound 53], the IC50 is over 1 µM under setting [1], 0.466 µM under setting [2] and 0.227 µM under setting [3].
